Test results reported in patent US20230002360A1, “Heterocycloalkyl compounds as CCR2 / CCR5 antagonists” (SHENZHEN LINGFANG BIOTECH CO.,LTD, priority 2019, published 2023).

Experiments:
CYP2C9 = molecular target: T1, CYP2C9 (Homo sapiens, UniProt P11712); assay: Inhibition of human liver microsomal CYP2C9 (diclofenac probe); format: in vitro ADME; conditions: human liver microsomes, read-out: Half inhibitory concentration IC50, CYP2C9
T1 construct: from tissue; host or cells: human liver microsomes
T1 sequence (P11712 whole entry): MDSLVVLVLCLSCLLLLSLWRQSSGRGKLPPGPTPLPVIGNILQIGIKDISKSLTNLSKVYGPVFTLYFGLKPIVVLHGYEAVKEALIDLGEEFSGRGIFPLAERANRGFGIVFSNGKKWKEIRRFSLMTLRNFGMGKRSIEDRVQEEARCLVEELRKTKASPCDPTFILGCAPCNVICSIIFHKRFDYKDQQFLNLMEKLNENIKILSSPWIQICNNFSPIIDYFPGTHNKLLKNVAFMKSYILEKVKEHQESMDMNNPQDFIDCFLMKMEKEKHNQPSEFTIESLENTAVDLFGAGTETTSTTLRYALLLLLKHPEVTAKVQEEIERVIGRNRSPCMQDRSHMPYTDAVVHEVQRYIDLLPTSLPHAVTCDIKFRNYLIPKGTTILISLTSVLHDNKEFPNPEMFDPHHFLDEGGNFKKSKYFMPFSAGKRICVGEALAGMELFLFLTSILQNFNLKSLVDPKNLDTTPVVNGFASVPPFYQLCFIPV
Experimental: (§1) Experimental Example 2. Inhibition of human liver microsomal cytochrome P450 isoenzymes (CYP1A2, CYP2C9, CYP2C19, CYP2D6 and CYP3A4) activity
(§2) A total of 5 specific probe substrates of 5 CYP isozymes, which are phenacetin (PHenacetin, CYP1A2), diclofenac (Diclofenac, CYP2C9), (S)-mephenytoin ((S)-MepHenytoin, CYP2C19), dextromethorpHan (CYP2D6), and midazolam (Midazolam, CYP3A4), were incubated with human liver microsomes respectively. Then, reduced nicotinamide adenine dinucleotide phosphate (NADPH) was added to initiate reaction. After the reaction, the sample is processed and quantitatively detected for the concentrations of the five metabolites produced from the specific substrate, acetaminophen (AcetaminopHen), 4′-hydroxydiclofenac (4′-Hydroxydiclofenac), 4′-Hydroxymephenytoin (4′-HydroxymepHenytoin), Dextrorphan (DextrorpHan), and 1′-Hydroxymidazolam (1′-Hydroxymidazolam) by liquid chromatography-quadrupole mass spectrometry (LC-MS/MS) method to calculate the corresponding half inhibitory concentration (IC50).

CYP2D6 = molecular target: T2, CYP2D6 (Homo sapiens, UniProt P10635); assay: Inhibition of human liver microsomal CYP2D6 (dextromethorphan probe); format: in vitro ADME; conditions: human liver microsomes, read-out: Half inhibitory concentration IC50, CYP2D6
T2 construct: from tissue; host or cells: human liver microsomes
T2 sequence (P10635 whole entry): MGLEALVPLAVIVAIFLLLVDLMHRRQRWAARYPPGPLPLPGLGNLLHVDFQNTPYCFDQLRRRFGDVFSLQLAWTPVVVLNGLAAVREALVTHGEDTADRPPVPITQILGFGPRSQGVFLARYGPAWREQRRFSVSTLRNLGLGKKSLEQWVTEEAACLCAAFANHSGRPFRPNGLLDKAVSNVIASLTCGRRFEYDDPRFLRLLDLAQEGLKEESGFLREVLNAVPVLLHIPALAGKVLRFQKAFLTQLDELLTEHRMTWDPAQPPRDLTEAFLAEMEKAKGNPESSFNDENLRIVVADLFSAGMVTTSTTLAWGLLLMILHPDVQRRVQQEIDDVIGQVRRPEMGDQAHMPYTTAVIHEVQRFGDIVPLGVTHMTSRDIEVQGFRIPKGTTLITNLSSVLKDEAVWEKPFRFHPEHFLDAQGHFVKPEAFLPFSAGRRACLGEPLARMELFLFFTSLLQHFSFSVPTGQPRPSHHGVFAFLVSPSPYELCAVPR
Experimental: as §1, §2

CYP1A2 = molecular target: T3, CYP1A2 (Homo sapiens, UniProt P05177); assay: Inhibition of human liver microsomal CYP1A2 (phenacetin probe); format: in vitro ADME; conditions: human liver microsomes, read-out: Half inhibitory concentration IC50, CYP1A2
T3 construct: from tissue; host or cells: human liver microsomes
T3 sequence (P05177 1-516): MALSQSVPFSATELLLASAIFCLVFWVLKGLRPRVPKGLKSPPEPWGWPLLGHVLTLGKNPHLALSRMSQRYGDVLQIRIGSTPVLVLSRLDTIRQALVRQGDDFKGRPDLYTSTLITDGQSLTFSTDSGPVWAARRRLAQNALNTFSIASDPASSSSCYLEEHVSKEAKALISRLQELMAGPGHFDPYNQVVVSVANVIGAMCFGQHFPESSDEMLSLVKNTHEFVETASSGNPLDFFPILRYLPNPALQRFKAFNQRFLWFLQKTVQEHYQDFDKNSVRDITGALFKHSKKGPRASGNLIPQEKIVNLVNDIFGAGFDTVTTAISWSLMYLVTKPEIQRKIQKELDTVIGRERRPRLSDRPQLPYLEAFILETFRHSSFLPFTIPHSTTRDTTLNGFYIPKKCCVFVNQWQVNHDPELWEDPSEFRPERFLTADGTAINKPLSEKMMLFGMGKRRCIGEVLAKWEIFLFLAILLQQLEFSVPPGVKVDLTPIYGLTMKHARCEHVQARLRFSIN
Experimental: as §1, §2

CYP3A4 = molecular target: T4, CYP3A4 (Homo sapiens, UniProt P08684); assay: Inhibition of human liver microsomal CYP3A4 (midazolam probe); format: in vitro ADME; conditions: for inhibitory effect on CYP3A4 (in words): conclusion from Table 2; for IC50: human liver microsomes, midazolam, read-out: Half inhibitory concentration IC50, CYP3A4-M
T4 construct: from tissue; host or cells: human liver microsomes
T4 sequence (P08684 whole entry): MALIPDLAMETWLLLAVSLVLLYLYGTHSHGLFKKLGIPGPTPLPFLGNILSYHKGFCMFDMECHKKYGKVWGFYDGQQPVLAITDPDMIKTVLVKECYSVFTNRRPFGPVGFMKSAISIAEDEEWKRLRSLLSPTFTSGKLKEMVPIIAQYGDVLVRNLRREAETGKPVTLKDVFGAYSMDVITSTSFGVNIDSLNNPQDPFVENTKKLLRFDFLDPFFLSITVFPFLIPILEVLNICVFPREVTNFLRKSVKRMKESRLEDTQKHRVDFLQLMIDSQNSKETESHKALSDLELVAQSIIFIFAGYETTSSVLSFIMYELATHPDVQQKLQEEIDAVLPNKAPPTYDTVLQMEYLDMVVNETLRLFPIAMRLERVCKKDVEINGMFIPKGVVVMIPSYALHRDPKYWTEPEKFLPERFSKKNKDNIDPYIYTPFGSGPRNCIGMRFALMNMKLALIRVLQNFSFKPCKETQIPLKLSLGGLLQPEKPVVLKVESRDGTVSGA
Experimental: Inhibition of human liver microsomal cytochrome P450 isoenzymes (CYP1A2, CYP2C9, CYP2C19, CYP2D6 and CYP3A4) activity
A total of 5 specific probe substrates of 5 CYP isozymes, which are phenacetin (PHenacetin, CYP1A2), diclofenac (Diclofenac, CYP2C9), (S)-mephenytoin ((S)-MepHenytoin, CYP2C19), dextromethorpHan (CYP2D6), and midazolam (Midazolam, CYP3A4), were incubated with human liver microsomes respectively. Then, reduced nicotinamide adenine dinucleotide phosphate (NADPH) was added to initiate reaction.

CYP2C19 = molecular target: T5, CYP2C19 (Homo sapiens, UniProt P33261); assay: Inhibition of human liver microsomal CYP2C19 ((S)-mephenytoin probe); format: in vitro ADME; conditions: human liver microsomes, read-out: Half inhibitory concentration IC50, CYP2C19
T5 construct: from tissue; host or cells: human liver microsomes
T5 sequence (P33261 whole entry): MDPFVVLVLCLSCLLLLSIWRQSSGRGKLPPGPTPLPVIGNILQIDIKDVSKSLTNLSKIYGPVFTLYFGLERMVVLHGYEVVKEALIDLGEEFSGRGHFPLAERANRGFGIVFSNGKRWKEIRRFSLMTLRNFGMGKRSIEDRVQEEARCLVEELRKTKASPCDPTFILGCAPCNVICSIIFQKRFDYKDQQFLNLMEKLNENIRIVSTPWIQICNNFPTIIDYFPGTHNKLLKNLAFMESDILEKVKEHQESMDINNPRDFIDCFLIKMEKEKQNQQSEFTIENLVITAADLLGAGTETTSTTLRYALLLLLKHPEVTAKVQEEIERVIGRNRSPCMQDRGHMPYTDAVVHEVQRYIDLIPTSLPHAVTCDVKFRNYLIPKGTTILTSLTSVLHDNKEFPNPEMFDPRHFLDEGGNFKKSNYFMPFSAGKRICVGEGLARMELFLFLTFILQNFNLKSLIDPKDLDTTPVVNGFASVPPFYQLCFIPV
Experimental: as §1, §2

CCR5 = molecular target: T6, CCR5 (Homo sapiens, UniProt P51681); assay: FLIPR calcium assay, CCR5 cell line; format: cell-based; conditions: HEK293 host cell, RANTES agonist, intracellular calcium signal; read-out: IC50 (nM) test results for FLIPR detection, CCR5
T6 construct: expressed in transfected cells; host or cells: HEK293 (clone C13, passage P4)
T6 sequence (P51681 whole entry, species assumed): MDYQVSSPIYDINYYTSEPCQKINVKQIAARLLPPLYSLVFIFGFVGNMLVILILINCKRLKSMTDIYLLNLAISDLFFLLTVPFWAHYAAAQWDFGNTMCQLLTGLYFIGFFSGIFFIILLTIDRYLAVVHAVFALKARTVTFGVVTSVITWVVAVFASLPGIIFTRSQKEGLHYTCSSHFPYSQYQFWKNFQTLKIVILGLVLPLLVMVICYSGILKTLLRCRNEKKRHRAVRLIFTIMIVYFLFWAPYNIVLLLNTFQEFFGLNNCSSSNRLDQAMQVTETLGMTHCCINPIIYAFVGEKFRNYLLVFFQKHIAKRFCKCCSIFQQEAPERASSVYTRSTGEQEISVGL
Experimental: (§3) The changes in intracellular calcium signal were detected by FLIPR Calcium assay, and the compound's IC50 value was used as an indicator to evaluate inhibitory effect of the compound on CCR2 and CCR5 receptors.
(§4) 1, Cell line: Cells were seeded and incubated overnight in an incubator at 37° C. and 5% CO2.
(§5) CCR2/CCR5 density: 1 M (20K/Well)
(§6) 2, Reagents: Fluo-4 Direct, (Invitrogen, Cat #f10471)
(§7) The compound was dissolved in DMSO to prepare a 10 mM solution, and the compound solution was placed in a nitrogen gas box.
(§8) MCP-1 was serially diluted with FLIPR assay buffer starting from 0.5 μM at a dilution ratio of 1:2 and a total of 10 gradients were diluted (final 100 nM). RANTES is serially diluted with FLIPR assay buffer starting from 0.5 μM at a dilution ratio of 1:3 and a total of 10 gradients were diluted (final 100 nM). According to the compound plate-map, 20 μL of the serially diluted compound buffers were added to each well of the DRC plate respectively.
(§9) The standard compound was diluted with DMSO 1:3 starting from 1 mM at a dilution ratio of 1:3 and a total of 11 gradients were diluted. The test compound was diluted with DMSO 1:3 starting from 2 mM at a dilution ratio of 1:3 and a total of 11 gradients were diluted.
(§10) c) taking the cell plate from the incubator, and gently distributing 20 μL of 2× Fluo-4 Direct non-washing loading buffer to each well of the 384-well cell culture plate using a pipette, wherein each of wells in the cell plate has a final volume of 40 μL.
(§11) d) Incubating at 37° C. and 5% CO2 for 50 minutes, and at room temperature for 10 minutes.
(§12) e) removing the cell plate from the incubator and placing in FLIPR, and putting the composite plate and the tip box into FLIPR.
(§13) 5) Calculating from Read 90 to the maximum allowable “maximum-minimum”, and calculating the EC80 value of each of cell lines by using FLIPR
(§14) 6) Preparing the reference agonist compound at a concentration of 5×EC80
(§15) 2) Transferring […] of the reference agonist compound at a concentration of 5×EC80 from the composite plate to the cell plate.
(§16) 3) Reading the fluorescence signal.
(§17) 4) Calculating from Read 90 to the maximum allowable “maximum-minimum”.
(§18) h) Analyzing the data and calculating the IC50 value of the compound by using Prism.

CCR2 = molecular target: T7, CCR2 (Homo sapiens, UniProt P41597); assay: FLIPR calcium assay, CCR2 cell line; format: cell-based; conditions: HEK293 host cell, MCP-1 agonist, intracellular calcium signal; read-out: IC50 (nM) test results for FLIPR detection, CCR2
T7 construct: expressed in transfected cells; host or cells: HEK293 (clone C7, passage P6)
T7 sequence (P41597 whole entry, species assumed): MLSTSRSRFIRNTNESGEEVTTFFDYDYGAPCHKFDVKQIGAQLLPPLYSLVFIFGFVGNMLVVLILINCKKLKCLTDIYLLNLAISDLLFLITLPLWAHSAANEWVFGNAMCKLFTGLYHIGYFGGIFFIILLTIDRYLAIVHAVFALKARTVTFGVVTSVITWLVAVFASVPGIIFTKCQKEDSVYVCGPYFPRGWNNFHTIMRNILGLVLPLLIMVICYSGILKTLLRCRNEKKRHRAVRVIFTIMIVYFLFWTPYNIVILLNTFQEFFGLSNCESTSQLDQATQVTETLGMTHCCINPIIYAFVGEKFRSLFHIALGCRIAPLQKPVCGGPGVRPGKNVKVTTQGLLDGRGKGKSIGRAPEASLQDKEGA
Experimental: as §3, §4, §5, §6, §7, §8, §9, §10, §11, §12, §13, §14, §15, §16, §17, §18

[1] = tested on: human liver microsomal cytochrome P450 isoenzymes; assay: Inhibition of human liver microsomal cytochrome P450 isoenzymes, overall conclusion; format: in vitro ADME; conditions: conclusion from Table 2
Experimental: as §1, §2

Compound | IC50 (CCR5) [nM] | IC50 (CCR2) [nM] | other results
CCCCOCCOc1ccc(-c2ccc3c(c2)/C=C(/C(=O)Nc2ccc([S@@+]([O-])Cc4cncn4CCC)cc2)CCCN3CC(C)C)cc1 [(CVC), Cenicriviroc, reference compound] |  |  | IC50 (CYP2C9): > 50000 nM; IC50 (CYP2D6): > 50000 nM; IC50 (CYP1A2): > 50000 nM; inhibitory effect on CYP3A4 (in words) (CYP3A4): strong inhibitory effect; IC50 (CYP3A4): 750 nM; IC50 (CYP2C19): > 50000 nM
CCCCOCCOc1ccc(-c2ccc3c(c2)/C=C(/C(=O)Nc2ccc([S@@+]([O-])Cc4cncn4CCC)cc2)CCCN3CC2CC2)cc1 [Reference A, reference compound] |  |  | IC50 (CYP2C9): > 50000 nM; IC50 (CYP2D6): > 50000 nM; IC50 (CYP1A2): > 50000 nM; inhibitory effect on CYP3A4 (in words) (CYP3A4): strong inhibitory effect; IC50 (CYP3A4): 786 nM; IC50 (CYP2C19): > 50000 nM
CCCCOCCOc1ccc(-c2ccc3c(c2)/C=C(/C(=O)Nc2ccc([S@+]([O-])Cc4c(C)ncn4CC)cc2)CCCN3CC2CCOCC2)cc1 [WX001] | 4.25 | 1.33 | IC50 (CYP2C9): > 50000 nM; IC50 (CYP2D6): > 50000 nM; IC50 (CYP1A2): > 50000 nM; inhibitory effect on CYP3A4 (in words) (CYP3A4): no inhibitory effect; IC50 (CYP3A4): > 50000 nM; IC50 (CYP2C19): 1420 nM
CCCCOCCOc1ccc(-c2ccc3c(c2)/C=C(/C(=O)Nc2ccc([S@@+]([O-])Cc4c(C)ncn4CC)cc2)CCCN3CC2CCOCC2)cc1 [WX002] |  | 3 | IC50 (CYP2C9): 10900 nM; IC50 (CYP2D6): > 50000 nM; IC50 (CYP1A2): > 50000 nM; risk of inhibiting the activity of human liver microsomal cytochrome P450 isoenzymes (in words) [1]: no risk of inhibiting the activity; IC50 (CYP3A4): 13300 nM; IC50 (CYP2C19): > 50000 nM
CCCCOCCOc1ccc(-c2ccc3c(c2)C=C(C(=O)Nc2ccc([S@+]([O-])Cc4c(C)ncn4CC)cc2)CCN3CC2CCCOC2)cc1 (some centres unmarked) [WX003] | 8.27 | 37 | 
CCCCOCCOc1ccc(-c2ccc3c(c2)/C=C(/C(=O)Nc2ccc([S@+]([O-])Cc4c(C)ncn4CC)cc2)CCCN3CC2COC2)cc1 [WX004] | 6.3 | 3.04 | 
CCCCOCCOc1ccc(-c2ccc3c(c2)/C=C(/C(=O)Nc2ccc([S@+]([O-])Cc4c(C)ncn4CC)cc2)CCCCN3CC2COC2)cc1 [WX005] | 4.2 | 9.2 | 
CCCCOCCOc1ccc(-c2ccc3c(c2)/C=C(/C(=O)Nc2ccc([S@+]([O-])Cc4c(C)ncn4CC)cc2)CCCCN3CC2CCCOC2)cc1 (some centres unmarked) [WX006] | 8.44 | 7.51 | 
CCCCOCCOc1ccc(-c2ccc3c(c2)/C=C(/C(=O)Nc2ccc([S@+]([O-])Cc4c(C)ncn4CC)cc2)CCCCN3CC2CCCOC2)cc1 (some centres unmarked) [WX007] | 6.18 | 6.76 | 
CCCCOCCOc1ccc(-c2ccc3c(c2)/C=C(/C(=O)Nc2ccc([S@+]([O-])Cc4c(C)ncn4CC)cc2)CCCN3CC2CCCCO2)cc1 (some centres unmarked) [WX008] | 6.04 | 3.4 | 
CCCCOCCOc1ccc(-c2ccc3c(c2)/C=C(/C(=O)Nc2ccc([S@+]([O-])Cc4c(C)ncn4CC)cc2)CCCN3CC2CCN(C)CC2)cc1 [WX009] | 6.78 | 4.38 | 
CCCCOCCOc1ccc(-c2ccc3c(c2)/C=C(/C(=O)Nc2ccc([S@+]([O-])Cc4c(C)ncn4CC)cc2)CCCN3CC2CCOC2)cc1 (some centres unmarked) [WX013] | 5.45 | 3.11 | 
CCCCOCCOc1ccc(-c2ccc3c(c2)/C=C(/C(=O)Nc2ccc([S@+]([O-])Cc4c(C)ncn4CC)cc2)CCCN3CC2CCOC2)cc1 (some centres unmarked) [WX014] | 6.28 | 3.78 | 
CCCCOCCOc1ccc(-c2ccc3c(c2)/C=C(/C(=O)Nc2ccc([S@@+]([O-])Cc4c(C)ncn4CC)cc2)CCCN3CC2CCOCC2)cc1 [WX017] |  | 2.47 | 
CCCCOCCOc1ccc(-c2ccc3c(c2)C=C(C(=O)Nc2ccc([S@+]([O-])Cc4c(C)ncn4CC)cc2)CCN3CC2CCN(C)CC2)cc1 [WX018] | 3.35 | 17.9 | 
CCCCOCCOc1ccc(-c2ccc3c(c2)/C=C(/C(=O)Nc2ccc([S@+]([O-])Cc4c(C)ncn4CC)cc2)CCCN3CC2COCCO2)cc1 (some centres unmarked) [WX025] | 1.38 | 0.69 | 
CCCCOCCOc1ccc(-c2ccc3c(c2)/C=C(/C(=O)Nc2ccc([S@+]([O-])Cc4c(C)ncn4CC)cc2)CCCN3CC2COCCO2)cc1 (some centres unmarked) [WX026] | 1.37 | 0.69 | 
CCCCOCCOc1ccc(-c2ccc3c(c2)/C=C(/C(=O)Nc2ccc([S@+]([O-])Cc4c(C)ncn4CC)cc2)CCCN3CC2CCCO2)cc1 (some centres unmarked) [WX027] | 1.44 | 0.41 | 
CCCCOCCOc1ccc(-c2ccc3c(c2)/C=C(/C(=O)Nc2ccc([S@+]([O-])Cc4c(C)ncn4CC)cc2)CCCN3C[C@H]2CCCO2)cc1 [WX028] | 3.15 | 1.19 | 
